Entries after “also recorded” stand apart in the source; their conditions may differ.
What was measured:
[1] = system: WS3; experiment: Coupled enzyme assay, WS substrate profile (TLC); assay type: biochemical, Marinobacter hydrocarbonoclasticus DSM 8798; details: coupled reaction; palmitic acid with hexadecanol, phytanic acid with phytol
Description: (§1) Stock solutions of various substrates were prepared in 50 mM Tris-HCl buffer (pH 8) containing 1% gum arabic, 12.5 μg bovine serum albumin ml^−1, 0.1% taurocholate, and either 100 mM fatty acid, isoprenoid acid, fatty alcohol, or isoprenoid alcohol. Stock solutions were sonicated to disperse the substrates. Substrate profiles of the three WS were tested using coupled enzyme in vitro reactions in which the CoA synthetases Acs1 and Acs2 are added to synthesize the CoA-activated fatty acid phytanic acid substrates from corresponding acid precursors for the WS reactions. Assays were carried out in 500-μl reactions containing in 50 mM Tris-HCl buffer (pH 8.0), 12.5 μl of each acid, and alcohol substrate stock solution (final concentrations of each substrate of 250 μM), 10 mM MgCl2, 10 mM CoASH, 10 mM ATP, 5 mM TCEP, 0.1 U of inorganic pyrophosphatase, 0.25 μg of Acs1 and Acs2 CoA synthetase, and 0.5 μg of WS to be tested. Assays were incubated at 37° C. overnight before thin-layer chromatography (TLC) analysis of the reaction products.
(§2) In vitro WS assay samples were extracted with 500 μl of chloroformmethanol (1:1 [vol/vol]), and extracts were analyzed by TLC with Whatman normal phase silica gel 60 plates and developed using hexane-diethyl ether-acetic acid (90:10:1 [vol/vol/vol]). […]

[2] = biological target: T1, WS2 (Marinobacter nauticus, UniProt A3RE51); experiment: Coupled enzyme assay, WS substrate profile (TLC); assay type: biochemical, Marinobacter hydrocarbonoclasticus DSM 8798; parameters: key to WE formation (spot intensity of wax ester products on TLC), WS2, C16 / WE formation (spot intensity of wax ester products on TLC), WS2, Phytol / WE formation (spot intensity of wax ester products on TLC), WS2, Farnesol / WE formation (spot intensity of wax ester products on TLC), WS2, C10 / WE formation (spot intensity of wax ester products on TLC), WS2, C12 / WE formation (spot intensity of wax ester products on TLC), WS2, C14: no activity (−); ranging from no activity (−) to most active (+++); ranging from no activity (−) to most active (+++); most active (+++); details: for WE formation (spot intensity of wax ester products on TLC), WS2, Farnesol: alcohol farnesol; for WE formation (spot intensity of wax ester products on TLC), WS2, Farnesol / WE formation (spot intensity of wax ester products on TLC), WS2, Phytol / WE formation (spot intensity of wax ester products on TLC), WS2, C10 / WE formation (spot intensity of wax ester products on TLC), WS2, C12 / WE formation (spot intensity of wax ester products on TLC), WS2, C14 / WE formation (spot intensity of wax ester products on TLC), WS2, C16: 12 h at 37° C., each substrate 250 μM; for WE formation (spot intensity of wax ester products on TLC), WS2, Phytol: alcohol phytol; for WE product formation by WS2 (TLC), in words: coupled reaction, palmitic acid with hexadecanol, phytanic acid with phytol, phytanoyl-CoA with the alcohols named in the value; for WE formation (spot intensity of wax ester products on TLC), WS2, C10: fatty alcohol C10; for WE formation (spot intensity of wax ester products on TLC), WS2, C12: fatty alcohol C12; for WE formation (spot intensity of wax ester products on TLC), WS2, C14: fatty alcohol C14; for WE formation (spot intensity of wax ester products on TLC), WS2, C16: fatty alcohol C16
T1 sequence (A3RE51 entry or part of it): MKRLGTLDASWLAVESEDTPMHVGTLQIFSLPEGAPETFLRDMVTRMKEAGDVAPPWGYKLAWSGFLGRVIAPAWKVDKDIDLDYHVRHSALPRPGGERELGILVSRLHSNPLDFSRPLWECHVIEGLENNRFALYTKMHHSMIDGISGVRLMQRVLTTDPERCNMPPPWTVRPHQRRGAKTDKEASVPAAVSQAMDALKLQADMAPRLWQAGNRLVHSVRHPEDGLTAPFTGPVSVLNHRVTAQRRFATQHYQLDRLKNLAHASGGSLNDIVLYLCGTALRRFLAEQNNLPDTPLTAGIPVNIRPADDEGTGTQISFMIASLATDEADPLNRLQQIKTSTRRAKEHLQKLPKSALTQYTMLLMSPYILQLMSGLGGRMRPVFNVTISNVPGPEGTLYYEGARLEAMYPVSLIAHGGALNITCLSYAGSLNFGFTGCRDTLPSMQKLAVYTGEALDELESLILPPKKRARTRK
Description: as §1
(§3) In vitro WS assay samples were extracted with 500 μl of chloroformmethanol (1:1 [vol/vol]), and extracts were analyzed by TLC with Whatman normal phase silica gel 60 plates and developed using hexane-diethyl ether-acetic acid (90:10:1 [vol/vol/vol]). TLC plates were stained with either iodine vapor or anisaldehyde solution as described earlier (Jork et al., 1990. Thin-layer chromatography reagents and detection methods, vol. 1a. Physical and chemical detection methods: fundamentals, reagents. VHC, Weinheim, Germany). Palmitoyl palmitate and triolein were used as WE and TAG reference compounds, respectively.

[3] = system: Acs4; experiment: CoA synthetase assay (HPLC, LC-MS); assay type: biochemical, Marinobacter hydrocarbonoclasticus DSM 8798; details: 10 mM acid, 20 min at 37° C.
Description: (§4) In vitro reactions were performed as described previously (Trivedi et al., 2004, Nature, 428:441-445) with some modifications. CoA synthetase assays were carried out in 250-μl reaction volumes containing 50 mM Tris-HCl buffer (pH 7.5), 0.1% Triton X-100, 10 mM MgCl2, 5 mM TCEP, 0.1 U of inorganic pyrophosphatase, and as substrates 10 mM phytanic or fatty acids, 10 mM reduced coenzyme A (CoASH), 10 mM ATP, and 0.5 μg of purified Acs (either 1, 2, 3, or 4) protein. The reactions were incubated for 20 min at 37° C. and stopped with 25 μl of 5% acetic acid, followed by HPLC analysis of the reaction products.
(§5) CoA-synthetase assay samples (25 μl) were resolved on an Agilent 1100 HPLC (Agilent Technologies, Palo Alto, Calif.) equipped with a photodiode array detector set to 259 nm. Samples were separated on a reversed-phase Eclipse XDB-C8 column (Agilent Technologies) at a flow rate of 1 ml min^−1. Solvent A consisted of 20 mM ammonium acetate (pH 5.4) in HPLC-grade water, and solvent B contained acetonitrile and methanol (85:15 [vol/vol]). Acyl-CoA and phytanoyl-CoA products were eluted using the following conditions: solvent A-solvent B at 65:35 from 0 to 5 min, followed by a gradient from solvent A-solvent B at 65:35 to 100% solvent B in 30 min. Liquid chromatography-mass spectrometry (LC-MS) analyses of reaction products were done with an LCQ mass spectrophotometer equipped with an electrospray ionization source (ESI) (Thermo Finnigan). Mass fragmentation spectra were monitored in a mass range of m/z 400 to 1,500 with a negative ESI interface.

[4] = system: Acs2; experiment: CoA synthetase assay (HPLC, LC-MS); assay type: biochemical, Marinobacter hydrocarbonoclasticus DSM 8798; details: 10 mM acid, 20 min at 37° C.
Description: as §4, §5

[5] = system: Acs3; experiment: CoA synthetase assay (HPLC, LC-MS); assay type: biochemical, Marinobacter hydrocarbonoclasticus DSM 8798; details: 10 mM acid, 20 min at 37° C.
Description: as §4, §5

[6] = system: WS1; experiment: Coupled enzyme assay, WS substrate profile (TLC); assay type: biochemical, Marinobacter hydrocarbonoclasticus DSM 8798; parameters: key to WE formation (spot intensity of wax ester products on TLC), WS1, C10 / WE formation (spot intensity of wax ester products on TLC), WS1, C12 / WE formation (spot intensity of wax ester products on TLC), WS1, C14 / WE formation (spot intensity of wax ester products on TLC), WS1, C16 / WE formation (spot intensity of wax ester products on TLC), WS1, Phytol / WE formation (spot intensity of wax ester products on TLC), WS1, Farnesol: no activity (−); ranging from no activity (−) to most active (+++); ranging from no activity (−) to most active (+++); most active (+++); details: for WE formation (spot intensity of wax ester products on TLC), WS1, Farnesol: alcohol farnesol; for WE formation (spot intensity of wax ester products on TLC), WS1, Farnesol / WE formation (spot intensity of wax ester products on TLC), WS1, Phytol / WE formation (spot intensity of wax ester products on TLC), WS1, C10 / WE formation (spot intensity of wax ester products on TLC), WS1, C12 / WE formation (spot intensity of wax ester products on TLC), WS1, C14 / WE formation (spot intensity of wax ester products on TLC), WS1, C16: 12 h at 37° C., each substrate 250 μM; for WE formation (spot intensity of wax ester products on TLC), WS1, Phytol: alcohol phytol; for WE product formation by WS1 (TLC), in words: coupled reaction, palmitic acid with hexadecanol, phytanic acid with phytol, phytanoyl-CoA with the alcohols named in the value; for WE formation (spot intensity of wax ester products on TLC), WS1, C10: fatty alcohol C10; for WE formation (spot intensity of wax ester products on TLC), WS1, C12: fatty alcohol C12; for WE formation (spot intensity of wax ester products on TLC), WS1, C14: fatty alcohol C14; for WE formation (spot intensity of wax ester products on TLC), WS1, C16: fatty alcohol C16
Description: as §1, §3

[7] = biological target: T1, WS2; experiment: WS2 kinetics on ethanol and oleoyl-CoA (DTNB); assay type: biochemical, Marinobacter hydrocarbonoclasticus
Description: […] Assay reactions were pre-incubated at 37° C. for 5 minutes before the reactions were started by the addition of enzyme.

[8] = system: WS1; experiment: DGAT assay (TLC); assay type: biochemical, Marinobacter hydrocarbonoclasticus DSM 8798; details: oleoyl-CoA as acyl donor, dipalmitoyl-glycerol as acyl acceptor
Text: (§6) TLC plates were stained with either iodine vapor or anisaldehyde solution as described earlier (Jork et al., 1990. Thin-layer chromatography reagents and detection methods, vol. 1a. Physical and chemical detection methods: fundamentals, reagents. VHC, Weinheim, Germany). Palmitoyl palmitate and triolein were used as WE and TAG reference compounds, respectively.

[9] = biological target: T1, WS2; experiment: DGAT assay (TLC); assay type: biochemical, Marinobacter hydrocarbonoclasticus DSM 8798; details: oleoyl-CoA as acyl donor, dipalmitoyl-glycerol as acyl acceptor
Text: as §6

[10] = system: Acs1; experiment: CoA synthetase assay (HPLC, LC-MS); assay type: biochemical, Marinobacter hydrocarbonoclasticus DSM 8798; details: 10 mM acid, 20 min at 37° C.
Description: as §4, §5

[11] = system: FadD; experiment: CoA synthetase assay (HPLC, LC-MS); assay type: biochemical, Pseudomonas putida; details: purified recombinant protein
[12] = biological target: T2, Acinetobacter WS/DGAT (Acinetobacter baylyi, UniProt Q8GGG1); experiment: Coupled enzyme assay (TLC); assay type: biochemical, Acinetobacter baylyi ADP1; details: phytanic acid and phytol as substrates
T2 construct: His6 (N); made in house
T2 sequence (Q8GGG1 1-458): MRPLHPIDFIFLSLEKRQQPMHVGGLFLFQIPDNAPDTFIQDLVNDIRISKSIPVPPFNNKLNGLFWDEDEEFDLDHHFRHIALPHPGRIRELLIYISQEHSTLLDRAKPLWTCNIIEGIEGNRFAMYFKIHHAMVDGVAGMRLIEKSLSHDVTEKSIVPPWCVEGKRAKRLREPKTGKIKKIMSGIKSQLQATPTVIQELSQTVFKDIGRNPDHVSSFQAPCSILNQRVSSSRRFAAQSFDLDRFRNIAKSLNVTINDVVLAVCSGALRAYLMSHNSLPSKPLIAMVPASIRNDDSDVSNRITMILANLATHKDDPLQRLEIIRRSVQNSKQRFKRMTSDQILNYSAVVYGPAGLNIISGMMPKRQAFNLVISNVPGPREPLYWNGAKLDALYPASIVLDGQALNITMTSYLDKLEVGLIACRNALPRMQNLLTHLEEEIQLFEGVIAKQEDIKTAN
Description: as §1, §2

| SMILES | WE product formation by WS3 (TLC), in words [1] | WE formation (spot intensity of wax ester products on TLC), WS2, Farnesol [2] | WE formation (spot intensity of wax ester products on TLC), WS2, Phytol [2] | WE product formation by WS2 (TLC), in words [2] | WE formation (spot intensity of wax ester products on TLC), WS2, C10 [2] | WE formation (spot intensity of wax ester products on TLC), WS2, C12 [2] | WE formation (spot intensity of wax ester products on TLC), WS2, C14 [2] | WE formation (spot intensity of wax ester products on TLC), WS2, C16 [2] | CoA activation by Acs4 [3] | CoA activation by Acs2 [4] | CoA activation by Acs3 [5] | WE formation (spot intensity of wax ester products on TLC), WS1, Farnesol [6] | WE formation (spot intensity of wax ester products on TLC), WS1, Phytol [6] | WE product formation by WS1 (TLC), in words [6] | WE formation (spot intensity of wax ester products on TLC), WS1, C10 [6] | WE formation (spot intensity of wax ester products on TLC), WS1, C12 [6] | WE formation (spot intensity of wax ester products on TLC), WS1, C14 [6] | WE formation (spot intensity of wax ester products on TLC), WS1, C16 [6] | other results |
| --- | --- | --- | --- | --- | --- | --- | --- | --- | --- | --- | --- | --- | --- | --- | --- | --- | --- | --- | --- |
| CCCCCCCCCCCCCCCC(=O)O [C16, palmitic acid] | no products were observed | ++ | + | Products were observed | + | + | ++ | +++ | most activity | most activity | most activity | ++ | + | Products were observed | + | ++ | + | +++ |  |
| CCCCCCCC/C=C\CCCCCCCC(=O)SCCNC(=O)CCNC(=O)[C@H](O)C(C)(C)COP(=O)(O)OP(=O)(O)OC[C@H]1O[C@@H](n2cnc3c(N)ncnc32)[C@H](O)[C@@H]1OP(=O)(O)O [Oleoyl-CoA] |  |  |  |  |  |  |  |  |  |  |  |  |  |  |  |  |  |  | Kcat of WS2 ([7]; steady state on ethanol and oleoyl-CoA): 59 s⁻¹; Vmax of WS2 ([7]; steady state, varied substrate 10 μM-250 μM, other substrate (oleoyl-CoA or ethanol) 500 μM): 1667 μmol (mg/min)^−1; DGAT activity of WS1 (TAG product on TLC) [8]: TAG products were only detected for WS1; also recorded: Only WS1 shows DGAT activity; DGAT activity of WS2 (TAG product on TLC) [9]: did not show DGAT activity |
| CC(C)CCCC(C)CCCC(C)CCCC(C)CC(=O)O (stereo not shown) [Phytanic acid] | no products were observed | ++ | ++ | Products were observed | − | − | − | − | Only Acs2 converted phytanic acid into phytanoyl-CoA | converted phytanic acid into phytanoyl-CoA | Only Acs2 converted phytanic acid into phytanoyl-CoA | + | + | Products were observed | − | − | − | − | CoA activation by Acs1 [10]: Only Acs2 converted phytanic acid into phytanoyl-CoA; CoA activation by P. putida FadD [11]: does not synthesize phytanoyl-CoA; also recorded: did not activate phytanic acid; Isoprenoid WE formation by Acinetobacter WS/DGAT [12]: did not show isoprenoid WE formation |
